Experiments:
[1] = Octanol-neutral buffer partition co-efficient, log D of the compound at pH 7.4
[2] = Apparent intrinsic clearance in human liver microsomes
[3] = tested on: Respiratory syncytial virus; test: Antiviral activity against Respiratory syncytial virus A2 infected in A549 cells after 3 days by CelltitreGlo assay; type: functional, organism-based; details: human respiratory syncytial virus, A2, A549, 72 h
[4] = Apparent permeability in MDCK cells selected for low expression of efflux transporters; details: dog
[5] = Apparent permeability in dog RRCK cells; details: MDCK
Hepatocyte = test: Apparent intrinsic clearance in human hepatocytes assessed per million cells
Liver microsomes = test: Apparent intrinsic clearance in rat liver microsomes assessed per mg protein
[6] = Oral absorption in rat; type: ADME, organism-based; details: in vivo
[7] = Drug excretion in rat urine; type: ADME; details: read-out: Drug excretion
[8] = Half life in iv dosed rat; details: in vivo
[9] = Volume of distribution in steady state in rat; details: in vivo
[10] = Oral bioavailability in rat; details: in vivo
[11] = Intrinsic clearance in rat plasma
[12] = Apparent intrinsic clearance in rat liver microsomes; type: ADME, Microsome; details: read-out: CLH(app)

SMILES	logD [1]	microsomal CLint [2] [µL/min/mg]	IC50 [3] [nM]	Papp [4] [×10⁻⁶ cm/s]	other results
CC(C)n1nc(Cn2nc3ccccc3c2OCCCO)c2ccccc21	3.5	246	992	16	
Cc1cc(CCn2cc(-c3cccnc3)nc2Cn2c(=O)n(C3CC3)c3ccncc32)on1	1.4		41	3	
COC(=O)c1nc(Cn2c(=O)n(C3CC3)c3ccncc32)n(CCCCO)c1C	0.8	9	12400		Papp [5]: 2 ×10⁻⁶ cm/s
CC(C)n1nc(CCn2nc(CCCCO)c3ccccc32)c2cnccc21	4.4	242	22700	8	
COCc1cn(CCCCO)c(Cn2c(=O)n(C3CC3)c3ccncc32)n1	0.2	9	6090		Papp [5]: 1 ×10⁻⁶ cm/s
O=c1n(Cc2nc(Cl)c(Cl)n2CCCCO)c2cnccc2n1C1CC1	2	< 8	109		
Cc1ncc(CCn2cc(-c3cccnc3)nc2Cn2c(=O)n(C3CC3)c3ccncc32)o1	0.9	10	2230		
CC(C)n1nc(Cn2nc3ccccc3c2C(=O)NCCCO)c2ccccc21	2.4		2930		
Cc1cc(CCn2cc(-c3cccnc3)nc2Cn2c(=O)n(C3CC3)c3ccncc32)no1	1.4	17	139	4	
CC(C)n1nc(Cn2nc3ccccc3c2CCCO)c2ccccc21	3.8	78	277	14	
CC(C)n1nc(Cn2nc3c(c2CCCCO)CCCC3)c2ccccc21	3.6	> 320	409	12	
O=c1n(Cc2nc3c(n2CCCCO)CCCC3)c2cnccc2n1C1CC1	1.8	65	4		Papp [5]: 4 ×10⁻⁶ cm/s
CC(C)n1nc(Cn2nc3ccccc3c2CCCCO)c2ccccc21	4.4		219		
COC(=O)N1CCC(n2c(=O)n(Cc3nc4ccccc4n3CCCCO)c3ccccc32)CC1	3.4	44	0.5		Papp [5]: 36 ×10⁻⁶ cm/s

The next lines start with results.

logD [1]	microsomal CLint [2] [µL/min/mg]	IC50 [3] [nM]	Papp [4] [×10⁻⁶ cm/s]	SMILES	other results
2	110	> 14100		COC(=O)N1CCC(n2ccc(Cc3nc4ccccc4n3CCCCO)n2)CC1	Papp [5]: 6 ×10⁻⁶ cm/s
1.4	< 8	233	5	O=c1n(Cc2nc(-c3ccccn3)cn2CCCCO)c2cnccc2n1C1CC1	CLH(app) (Hepatocyte): < 2.2 µL/min
3.9		65		CC(C)n1nc(Cn2nc3ccccc3c2OCCCCO)c2ccccc21	
0.9	< 8	> 20000		Cn1nccc1-c1cn(CCCCO)c(Cn2c(=O)n(C3CC3)c3ccncc32)n1	
2.9	462	169	32	CC(C)n1nc(Cn2c(=O)c3ccccc3n2CCCCO)c2ccccc21	
1.3	< 8	58	4	O=c1n(Cc2nc(-c3nccs3)cn2CCCCO)c2cnccc2n1C1CC1	CLH(app) (Liver microsomes): 21.1 µL/min; Fa [6]: > 60%; dose excreted [7]: 16%; Papp [5]: 4 ×10⁻⁶ cm/s; half-life [8]: 1.5 h; Vd [9]: 3.5 L/kg; bioavailability [10]: 34%; CLint scaled [11]: 48 mL/min/kg; CLH(app) (Hepatocyte): < 2.2 µL/min
0.9	< 8	5110		Cc1nnc(-c2cn(CCCCO)c(Cn3c(=O)n(C4CC4)c4ccncc43)n2)s1	
0.6	< 8	95		O=c1n(Cc2nc(-c3ncco3)cn2CCCCO)c2cnccc2n1C1CC1	
0.6	< 8	235	1	O=c1n(Cc2nc(-c3ncccn3)cn2CCCCO)c2cnccc2n1C1CC1	CLH(app) (Hepatocyte): < 2.2 µL/min
1.5	32	96	2	Cc1ccc(CCn2cc(-c3cccnc3)nc2Cn2c(=O)n(C3CC3)c3ccncc32)cn1	
0.8	< 8	10400		Cn1ccnc1-c1cn(CCCCO)c(Cn2c(=O)n(C3CC3)c3ccncc32)n1	
1.5	11	> 20000		CC(=O)N1CCC(Cn2nc3ccccc3c2CCCCO)CC1	Papp [5]: 2 ×10⁻⁶ cm/s
		13		O=c1n(Cc2nc3ccccc3n2CCCCO)c2cnccc2n1C1CC1	
1.2	< 8	265	4	O=c1n(Cc2nc(-c3cccnc3)cn2CCCCO)c2cnccc2n1C1CC1	microsomal CLint [12]: 44 µL/min/mg; CLint scaled [11]: 95 mL/min/kg; CLH(app) (Hepatocyte): < 2.2 µL/min
-0.5	15	55		COC(=O)N1CCC(n2c(=O)n(Cc3nc(C)c(C)n3CCCCO)c3cnccc32)CC1	Papp [5]: 1 ×10⁻⁶ cm/s

— ChEMBL document CHEMBL2331263, “Non-benzimidazole containing inhibitors of respiratory syncytial virus” (Bioorg Med Chem Lett, 2013)
